Measurements reported in paper PMC2990587, “Central nervous system penetration and enhancement of temozolomide activity in childhood medulloblastoma models by poly(ADP-ribose) polymerase inhibitor AG-014699” (British Journal of Cancer, 2010).
“Also recorded” adds a separate entry of the source.

Experiments:
[1] = AG-014447 distribution in plasma, brain and D283Med xenograft of tumour-bearing mice (LC/MS/MS); type: in vivo, mouse; conditions: for AUC in tumour: D283Med xenograft
Procedure: One or four daily doses of PARP inhibitor AG-014699 (1 mg kg^−1 intraperitoneally (i.p.)) were given to CD-1 nude mice bearing established D283Med xenografts. At 0.5, 2, 6 and 24 h after the initial or fourth daily dose of AG-014699, three animals per time point were bled by cardiac puncture under general anaesthesia, and then killed. Plasma was separated from the blood samples using standard methods and stored at −80°C. The brains and tumours were removed, snap frozen in liquid nitrogen and stored at −80°C before analysis. Blood, tumour and brain tissue were removed from three untreated control animals and processed in the same way.
AG-014699 is the phosphate salt of AG-014447 and rapidly liberates the parent drug following injection. The concentration of AG-014447 was determined in plasma and tissue homogenates (1 : 4 (w v^−1) in PBS) of brain and tumour after protein precipitation with acetonitrile by liquid chromatography/mass spectrometry/mass spectrometry using a turbo ion spray interface and multiple reaction monitoring in the positive ion mode (API 4000; Applied Biosystems, Warrington, Cheshire, UK) and a deuterated internal standard as described previously ([Plummer et al, 2008]). The lower limit of quantitation was 1 ng ml^−1. Plasma pharmacokinetics of AG-014447 were analysed using a non-compartmental approach in WinNonlin version 5.2.

[2] = set-up: method as in Thomas et al, 2007; conditions: ref Thomas et al, 2007; cited from earlier work
D425Med cells = test: XTT growth inhibition, D425Med; type: cell-based, human; conditions: for GI50: D425Med, temozolomide alone, XTT, 3 days
Procedure: (§1) Cell growth inhibition was estimated in exponentially growing D425Med, D283Med and D384Med cells in 96-well plates. Seeding densities of 1 × 10^3, 3 × 10^3 and 3 × 10^3 cells, respectively, ensured exponential growth for the duration of the experiment. At 24 h (D384Med) or 48 h (D283Med and D425Med) after seeding, cells were exposed to varying concentrations of temozolomide, as described in the Results, in the presence or absence of 0.4 μM AG-014699, a concentration previously shown to enhance temozolomide cytotoxicity in adult tumour cell lines ([Thomas et al, 2007]). After 3 days (D425Med and D384Med) or 5 days (D283Med) of culture (equivalent to approximately three cell divisions), the cell viability was quantified using an XTT cell proliferation kit assay (Roche, Mannheim, Germany), according to the manufacturer's instructions. Cell growth was expressed as a percentage in relation to DMSO or 0.4 μM AG-014699-alone controls. The concentration of temozolomide, alone or in combination with AG-014699, that inhibited growth by 50% (GI50) was calculated from computer-generated curves (GraphPad Software, San Diego, CA, USA). The potentiation factor50 (PF50) is defined as the ratio of […]. All data were from at least three independent experiments.

D283Med cells = test: XTT growth inhibition, D283Med; type: cell-based, human
Procedure: as §1

D384Med cells = test: XTT growth inhibition, D384Med; type: cell-based, human; conditions: Homo sapiens, D384 Med, 72 h; D384Med; temozolomide alone; XTT, 3 days
Procedure: as §1

D425Med xenografts = test: Tumour growth inhibition in vivo, D425Med xenografts; set-up: species or system mouse
Text: (§2) All of the in vivo experiments were reviewed and approved by the relevant institutional animal welfare committees, and performed according to national law. Female athymic nude mice (CD1 nu/nu; Charles River, Margate, UK) used for anti-tumour studies were maintained and handled in isolators under specific pathogen-free conditions. […], […] and […] (1 × 10^7 exponentially growing cells per mouse, harvested and implanted in growth media) xenografts were established by sub-cutaneous implantation into CD-1 nude mice. […] Treatment was initiated when sufficient number of mice had established tumours to allow randomisation into treatment groups: day 17 for […], day 26 for […] and day 32 for […]. […] For drug combinations, AG-014699 was administered immediately after administering temozolomide. […] Tumour growth delay (TGD) is defined as the time to RTV4 in drug-treated mice compared with the time to RTV4 in control (vehicle alone) mice. Median tumour volume is shown, rather than the mean, as this is generally accepted as the most statistically reliable representation of the average growth rate of tumours in a small group of mice, if a normal distribution of tumour volumes cannot be assumed. Tumour growth delay was calculated as: median time to RTV4 in treated group-median time to RTV4 in control group.

D283Med xenografts = test: Tumour growth inhibition in vivo, D283Med xenografts; set-up: species or system mouse; conditions: for Complete regressions: mice with regression/group
Text: as §2

D384Med xenografts = test: Tumour growth inhibition in vivo, D384Med xenografts; set-up: species or system mouse; conditions: for Complete regressions: mice with regression/group, transient
Text: as §2

[3] = Toxicity (body weight loss) in tumour-bearing mice; type: in vivo, mouse; conditions: daily x5; TMZ 68 mg kg−1 p.o., AG-014699 1 mg kg−1 i.p.
Procedure: CD-1 nude mice bearing palpable, established subcutaneous D425Med, D283Med and D384Med xenografts were treated with normal saline (control animals), temozolomide (68 mg kg^−1 per os (p.o.)) or AG-014699 (1 mg kg^−1 i.p.) alone or in combination, daily for 5 days (five mice per group). For drug combinations, AG-014699 was administered immediately after administering temozolomide. Tumour volumes, determined from two-dimensional calliper measurements and the equation a^2 × b/2 (where a is the […] of the tumour), were monitored for the experimental period (up to 100 days), and are presented for each group of mice as median relative tumour volume (RTV) values. Relative tumour volume 1 is the tumour volume on the initial day of treatment (day 0), and RTV4 is the tumour volume four times that on the initial day of treatment. Tumour growth delay (TGD) is defined as the time to RTV4 in drug-treated mice compared with the time to RTV4 in control (vehicle alone) mice. Median tumour volume is shown, rather than the mean, as this is generally accepted as the most statistically reliable representation of the average growth rate of tumours in a small group of mice, if a normal distribution of tumour volumes cannot be assumed. Tumour growth delay was calculated as: median time to RTV4 in treated group−median time to RTV4 in control group. Percentage enhancement was calculated as 100 × (TGD TMZ+AG-014699/TGD TMZ alone)−100 ([Calabrese et al, 2004]).

**Q.** For `CNCc1ccc(-c2[nH]c3cc(F)cc4c3c2CCNC4=O)cc1` [AG-014447], which “Levels in the brain relative to plasma” value ([1]; 6 h after fourth daily dose 1 mg kg−1 i.p.) is on record?
**A.** only marginally greater than plasma levels

**Q.** What about the “Brain level relative to plasma level” value ([1]; 24 h after single dose 1 mg kg−1 i.p.) of the same molecule?
**A.** up to 10 fold

**Q.** And the AUC in tumour ([1]; day 1, 1 mg kg−1 i.p.)?
**A.** 582.0 µmol·min/L

**Q.** What about the AUC in tumour ([1]; day 4, 1 mg kg−1 i.p. daily) of the same molecule?
**A.** 509.6 µmol·min/L

**Q.** And the AUC in brain ([1]; day 1, 1 mg kg−1 i.p.)?
**A.** 37.0 µmol·min/L

**Q.** What about the AUC in plasma ([1]; day 1, 1 mg kg−1 i.p.) of the same molecule?
**A.** 26.4 µmol·min/L

**Q.** What about the Plasma half-life ([1]; day 1, 1 mg kg−1 i.p.) of the same molecule?
**A.** 299 min

**Q.** And the AUC in brain ([1]; day 4, 1 mg kg−1 i.p. daily)?
**A.** 14.7 µmol·min/L

**Q.** What about the AUC in plasma ([1]; day 4, 1 mg kg−1 i.p. daily) of the same molecule?
**A.** 21.9 µmol·min/L

**Q.** What about the Plasma half-life ([1]; day 4, 1 mg kg−1 i.p. daily) of the same molecule?
**A.** 254 min

**Q.** And the “Plasma level of AG-014447 at 24 h” value ([1]; first dose AG-014699 1 mg kg−1 i.p., LLOQ 1 ng ml−1)?
**A.** below the level of quantitation

**Q.** And the “c log D” value [2]?
**A.** 0.7

**Q.** And the pKa [2]?
**A.** 9.6

**Q.** What does the source list for `Cn1nnc2c(C(N)=O)ncn2c1=O` [temozolomide]?
**A.** Relative sensitivity to temozolomide (times more sensitive) (D425Med cells; D425Med compared with D384Med, in culture): ~25 times; GI50 (D425Med cells): 9.3 ± 7.5 µM; GI50 (D425Med cells; Homo sapiens, D425 Med, 72 h): 9 µM; Relative sensitivity to temozolomide (times less sensitive) (D283Med cells; D283Med compared with D384Med): nearly four times less sensitive; Relative sensitivity to temozolomide (times less sensitive) (D283Med cells; D283Med compared with D425Med): ~100 times; GI50 (D283Med cells; Homo sapiens, D283 Med, 120 h, D283Med, temozolomide alone, XTT, 5 days): 807 ± 239 µM; GI50 (D384Med cells): 220 ± 42 µM; Median nadir body weight (% starting weight) (D425Med xenografts; D425Med-bearing mice, daily x5, TMZ 68 mg kg−1 p.o., AG-014699 1 mg kg−1 i.p.): 96 % starting weight; Complete tumour regressions (including not sustained) (D425Med xenografts; D425Med, daily x5): complete tumour regressions seen in all mice; also recorded: all mice showing complete tumour regressions; Median time to RTV4 (D425Med xenografts; D425Med, daily x5, TMZ 68 mg kg−1 p.o., AG-014699 1 mg kg−1 i.p.): >100 days; Complete regressions (D425Med xenografts; D425Med, mice with regression/group, sustained for 100 days): two out of five; Tumour growth delay (D425Med xenografts; D425Med, versus control time to RTV4): >81 days; Median nadir body weight (% starting weight) (D283Med xenografts; D283Med-bearing mice, daily x5, TMZ 68 mg kg−1 p.o., AG-014699 1 mg kg−1 i.p.): 94 % starting weight; Median time to RTV4 (D283Med xenografts; D283Med, daily x5, TMZ 68 mg kg−1 p.o., AG-014699 1 mg kg−1 i.p.): 9 days; Complete regressions (D283Med xenografts; D283Med): no regressions observed in any mice; Complete regressions (D283Med xenografts; D283Med, listed as TMZ): 0/5; Tumour growth delay (D283Med xenografts; D283Med, versus control time to RTV4): 2 days; Median nadir body weight (% starting weight) (D384Med xenografts; D384Med-bearing mice, daily x5, TMZ 68 mg kg−1 p.o., AG-014699 1 mg kg−1 i.p.): 97 % starting weight; Median time to RTV4 (D384Med xenografts; D384Med, daily x5, TMZ 68 mg kg−1 p.o., AG-014699 1 mg kg−1 i.p.): 44.5 days; Complete regressions (D384Med xenografts; D384Med): one transient complete response; Complete regressions (D384Med xenografts; D384Med, listed as TMZ): 1/5; Tumour growth delay (D384Med xenografts; D384Med, versus control time to RTV4): 28.5 days; Body weight loss [3]: 5±4%
